Measurements as given in patent publication US20040002117A1 (priority 1998, published 2004).

Columns and labels:
[1] = molecular target: T1, dephosphorylation of NFAT1 by calcineurin (Homo sapiens, UniProt Q08209); assay: in vitro dephosphorylation of NFAT1(1-460)-GFP by calcineurin in HeLa cytosolic extracts, Western blotting; type: biochemical
Experimental: Samples were resolved by SDS-PAGE and dephosphorylation was assessed with anti-HA antibody 12CA5. […] Slightly higher concentrations of the peptides were required to inhibit the in vitro dephosphorylation than were required to inhibit NFAT-calcineurin binding, presumably due to some degradation of the peptides by enzymes present in the cell extracts.

[2] = molecular target: T2, calcineurin (Homo sapiens, UniProt Q08209); assay: dephosphorylation of 32P-RII phosphopeptide by calcineurin; type: biochemical; conditions: 32P-RII phosphopeptide 100 μM, calcineurin 100 nM; peptides 30 μM to 400 μM; FK506/FKBP12 10 μM/10 μM
Experimental: The dephosphorylation reaction was allowed to proceed for 30 min at 30° C. after which the reaction was stopped by addition of excess 0.1% trichloroacetic acid, substrate peptide was removed by adsorption onto a cation exchange resin (AG50W; BioRad Laboratories, Hercules, Calif.), and released ^32P label in the supernatant was measured in a liquid scintillation counter.

[3] = molecular target: T1, dephosphorylation of NFAT1 by calcineurin; assay: dephosphorylation of HA-NFAT1(1-460)-GFP in HEK-293 cytosolic extracts by calcineurin/calmodulin; type: biochemical; conditions: wild type 13-mer 100 μM or 400 μM; mutant 400 μM; calcineurin/calmodulin 100 nM to 900 nM
Experimental: (§1) The HA-tagged N-terminal domains of NFAT1 and NFAT4 were expressed as the fusion proteins HA-NFAT1(1-460)-GFP and HA-NFAT4(1-407)-GFP in HEK-293 cells. […] Dephosphorylation was allowed to proceed for 30 min at 30° C., and samples were analyzed by SDS-PAGE and Western blotting with anti-HA antibody.

[4] = molecular target: dephosphorylation of NFAT4 by calcineurin (Homo sapiens, UniProt Q08209); assay: dephosphorylation of HA-NFAT4(1-407)-GFP in HEK-293 cytosolic extracts by calcineurin/calmodulin; type: biochemical; conditions: wild type 13-mer 100 μM or 400 μM; mutant 400 μM; calcineurin/calmodulin 100 nM to 900 nM
Experimental: as §1

[5] = molecular target: calcineurin binding to GST-NFAT1 (Homo sapiens, UniProt Q08209); assay: binding of activated calcineurin to GST-NFAT1(1-415), glutathione-Sepharose collection and Western blotting
[6] = molecular target: T3, dephosphorylation of NFAT by calcineurin (Homo sapiens, UniProt Q08209); assay: calcineurin-mediated dephosphorylation of HA-NFAT1(1-460)-GFP in HeLa cell lysates; type: biochemical; conditions: 200 nM calcineurin, 600 nM calmodulin, 30 min at 30 C.; peptide amounts as in FIG. 5B
Experimental: The phosphorylation status of NFAT was evaluated by SDS-polyacrylamide gel electrophoresis and Western blotting with anti-HA antibody 12CA5.

[7] = molecular target: T2, calcineurin; assay: in vitro dephosphorylation of recombinant 32P-labelled RIIα protein by calcineurin; type: biochemical
Experimental: Dephosphorylation was allowed to proceed during 45 min at 30° C., samples were resolved by SDS-PAGE, and the gel was stained with Coomasie Brilliant Blue, dried, and autoradiographed. A phosphorimager was used to quantitate the level of ^32P in each lane.

[8] = molecular target: T2, calcineurin; assay: dephosphorylation of GST-Tau protein by calcineurin; type: biochemical
[9] = molecular target: T3, dephosphorylation of NFAT by calcineurin; assay: in vitro dephosphorylation of NFAT1 in C1.7W2 T cell lysates by recombinant calcineurin; type: biochemical; conditions: 500 nM calcineurin, 600 nM calmodulin, 30 minutes at 30° C.; INCA2 at micromolar concentrations
Experimental: Dephosphorylation produces a change in mobility that is visible as a shift in the immunostained NFAT band.
Cell lysates were made from C1.7W2 T cells washed in PBS/2 mM EGTA, 10 mM iodoacetamide, collected by centrifugation, and resuspended at 80×10^6 cells/ml in chilled lysis buffer consisting of 10 mM KAc, 2 mM MgAc2, 2 mM EGTA, 100 mM HEPES/NaHEPES pH 7.4, 0.2% NP-40, 10 mM iodoacetamide, 2 mM PMSF, 20 μg/ml aprotinin, and 50 μM leupeptin. After incubation for 10 minutes on wet ice, the nuclei and cell debris were pelleted in a refrigerated microcentrifuge at 4° C. by centrifugation for 5 minutes at 13,500 rpm, and the resulting supernatant recovered with a prechilled pipette tip, rapidly frozen using a dry ice/ethanol bath, and stored at −80° C.
The dephosphorylation reaction was initiated by addition of 0.6 μl lysate per 20 μl reaction.

[10] = molecular target: T4, recombinant human calcineurin catalytic domain, calcineurin(2-347) (Homo sapiens, UniProt Q08209, L343A/M347D/Y341S); assay: fluorescence polarization competition assay, displacement of OG-VIVIT from calcineurin; type: binding; conditions: for displacement of OG-VIVIT from calcineurin: at high concentrations, 1 μM calcineurin, 60 nM OG-VIVIT; for IC50: calcineurin-VIVIT peptide interaction, read-out: Estimated IC50
T4 construct: GST (N, cleaved yes); made in house; host or cells: E. coli strain DH5α
Experimental: Samples were analyzed as described in the preceding paragraph, and the resulting polarization data were plotted against the concentration of unlabelled VIVIT peptide, as shown in FIG. 8B.
The library stocks were dissolved at a nominal concentration of 10 mM in DMSO, and formatted for convenient robotic transfer on 384-well plates at the Institute of Chemistry and Cell Biology, Harvard Medical School. To initiate the competition assay, 40 nl volumes were pin-transferred from each well of a library stock plate to the corresponding wells of an assay plate, utilizing a robotic device. After a minimum 10 min incubation at room temperature to allow the binding to reach equilibrium, fluorescence polarization data were collected employing an Analyst plate reader (Molecular Devices).
Stocks of candidate inhibitor compounds and their structural analogues were purchased from ChemBridge or Asinex. The structure and purity of individual compounds were verified by ^1H NMR, mass spectrometry, or thin-layer chromatography. […] INCA1, INCA2, and INCA6 can be represented generally as follows: […]

[11] = molecular target: calcineurin (Homo sapiens, UniProt Q08209, L343A/M347D/Y341S); assay: 1H NMR titration spectroscopy binding experiments; conditions: 10 μM compound, 20 μM calcineurin, 25° C., buffered D2O
Experimental: T2-filtered ^1H NMR spectra were obtained on a Bruker Avance 600 instrument with CryoPhobe using low-power presaturation of residual water. Preacquisition delays included up to five spin echos to suppress fast-relaxing broad protein resonances and were times to yield in-phase signals for J-coupled spins. Chemical shifts were referenced to internal standard 5 μM 2,2-dimethylsilapentane-5-sulfonic acid (DSS).

[12] = test system: NFAT-dependent reporter gene (3×NFAT-Luc) in Jurkat cells; assay: 3×NFAT-Luc luciferase reporter in transfected Jurkat cells; type: cell-based, human; conditions: GFP fusion expressed in Jurkat cells; PMA and ionomycin 6 hours
Experimental: Twenty-four hours after transfection, cells were left unstimulated, stimulated for 6 hours with 20 nM phorbol 12-myristate 13-acetate (PMA) and 1 μM ionomycin, or stimulated for 6 hours with 0.2 μg/ml immobilized anti-CD3 (HIT3a, Pharmingen) and 0.5 μg/ml soluble anti-CD28 (CD28.2, Pharmingen). CsA was added 30 min before the stimuli. Luciferase activity in cell lysates was measured using a luciferase assay system (Promega) and was normalized to the concentration of hGH in the cell culture medium determined with a radioimmunometric assay kit (Hybritech).
In the right panel are data from Jurkat cells that had been cotransfected with a 3×NFAT-Luc reporter plasmid and with expression plasmids encoding murine NFAT1, human NFAT2, or human NFAT4 as indicated. Twenty-four hours after transfection, cells were left unstimulated (Unstimulated; open bars) or were stimulated for 6 hours with PMA and ionomycin (PMA+iono; solid bars), cell lysates were prepared, and luciferase activity attributable to endogenous NFAT (Endog.) or to overexpressed NFAT proteins was measured.
Twenty-four hours after transfection, cells were left untreated (open bars) or were stimulated for 6 hours with PMA and ionomycin (solid bars).

[13] = molecular target: calcineurin binding to NFAT1 (Homo sapiens, UniProt Q08209); assay: 125I-calcineurin binding to GST-NFAT1(1-400) immobilized on glutathione-Sepharose beads; conditions: at concentrations up to 100 μM
[14] = molecular target: T2, calcineurin; assay: calcineurin phosphatase assay with phosphorylated RII peptide, Malachite green detection; type: biochemical; conditions: 100 μM INCA compound or 100 μM VIVIT peptide; 6.8 nM calcineurin, 15 min at 25° C.
[15] = peptide concentrations in the range from 16 μM to 400 μM, calcineurin 200 nM, calmodulin 600 nM, 30 min at 30° C.

Q: How did the “inhibition of dephosphorylation of NFAT1 by calcineurin in vitro” value (“inhibition … by calcineurin in vitro” for short) [1, 15] turn out when `CC[C@H](C)[C@H](NC(=O)[C@H](CCCNC(=N)N)NC(=O)[C@@H]1CCCN1C(=O)[C@H](CO)NC(=O)[C@@H]1CCCN1C(=O)CNC(=O)[C@@H](N)CO)C(=O)N[C@@H](CCC(=O)O)C(=O)N[C@H](C(=O)N[C@H](C(=O)N1CCC[C@H]1C(=O)N[C@@H](CO)C(=O)N[C@@H](Cc1c[nH]cn1)C(=O)O)[C@@H](C)O)[C@@H](C)CC` [wild type 13-mer peptide] was run?
A: inhibited

Q: And the “inhibition of dephosphorylation of the RII peptide by calcineurin” value [2]?
A: Neither of the SPRIEITPS peptides inhibited

Q: And the “inhibition of dephosphorylation of HA-NFAT1(1-460)-GFP” value [3]?
A: inhibited dephosphorylation

Q: And the “inhibition of dephosphorylation of HA-NFAT4(1-407)-GFP” value [4]?
A: inhibited dephosphorylation

Q: What about the “inhibition of the binding of activated calcineurin to GST-NFAT1” value ([5]; 200 nM calcineurin, 600 nM calmodulin, 2 mM CaCl2, peptide amounts as in FIG. 5A) of the same molecule?
A: inhibited

Q: And the “inhibition of NFAT dephosphorylation” value [6]?
A: effective

Q: For `O=P([O-])([O-])OP(=O)([O-])[O-].[Na+].[Na+].[Na+].[Na+]` [sodium pyrophosphate, reference compound], which “inhibition of dephosphorylation of RIIα protein by control inhibitors” value ([7]; sodium pyrophosphate 20 mM, CsA/cyclophilin […] μM/5 μM, FK506/FKBP12 4 μM/4 μM) is on record?
A: efficiently inhibited

Q: And the “inhibition of dephosphorylation of GST-Tau protein by control inhibitors” value ([8]; sodium pyrophosphate 10 mM, CsA/cyclophilin […] μM/5 μM)?
A: efficiently inhibited

Q: What about the “dephosphorylation of NFAT by calcineurin in vitro” value [9] of the same molecule?
A: no dephosphorylation

Q: What does the source list for `CC(=O)C(C(C)=O)C1=C(Cl)C(=O)C(=O)c2c(C(=O)c3ccccc3)coc21` [INCA1]?
A: Ki [10]: 500 to 2000 nM; displacement of OG-VIVIT from calcineurin [10]: complete; IC50 [10]: 1000 nM; binding to calcineurin in the absence of VIVIT peptide [11]: direct molecular interaction

Q: “GFP-SPRIEIT: GFP-SPRIEIT fusion protein, expression vector previously described (Aramburu et al 1998)” was tested. Which “block of induced luciferase expression, endogenous NFAT” value [12] did it give?
A: partially blocked

Q: With `CC[C@H](C)[C@H](NC(=O)[C@H](CCCNC(=N)N)NC(=O)[C@@H]1CCCN1C(=O)[C@H](CO)NC(=O)[C@@H]1CCCN1C(=O)CNC(=O)[C@H](CO)NC(=O)[C@H](C)NC(=O)CNC(=O)[C@H](C)NC(=O)[C@@H]1CCCN1C(=O)[C@@H](N)CCCCN)C(=O)N[C@@H](CCC(=O)O)C(=O)N[C@H](C(=O)N[C@H](C(=O)N1CCC[C@H]1C(=O)N[C@@H](CO)C(=O)N[C@@H](Cc1c[nH]cn1)C(=O)N[C@@H](CCC(=O)O)C(=O)N[C@@H](CC(C)C)C(=O)N[C@@H](CCSC)C(=O)N[C@@H](CCC(N)=O)C(=O)N[C@@H](C)C(=O)NCC(=O)NCC(=O)N[C@@H](Cc1ccc(O)cc1)C(=O)O)[C@@H](C)O)[C@@H](C)CC` [wild type 26-mer peptide] as the molecule, how does the “inhibition of dephosphorylation of NFAT1” value ([1]; 500 μM peptide) read?
A: fully inhibited

Q: What about the “inhibition … by calcineurin in vitro” value [1, 15] of the same molecule?
A: inhibited

Q: And the “inhibition of dephosphorylation of the RII peptide by calcineurin” value [2]?
A: Neither of the SPRIEITPS peptides inhibited

Q: And the “inhibition of dephosphorylation of RIIα protein” value ([7]; peptide 20 μM and 100 μM, calcineurin 200 nM, 45 min at 30° C.)?
A: did not inhibit

Q: And the inhibition at 500 µM ([7]; peptide 500 μM)?
A: 18%

Q: What about the “inhibition of dephosphorylation of GST-Tau protein by calcineurin” value ([8]; peptide 20 μM and 100 μM, calcineurin 200 nM, 90 min at 30° C.) of the same molecule?
A: not inhibited

Q: And the inhibition at 500 µM ([8]; read-out: inhibition of dephosphorylation of GST-Tau protein by calcineurin, peptide 500 μM)?
A: 10%

Q: How did the “inhibition of the NFAT1-calcineurin interaction” value [13] turn out when “CM2 mutant 26-mer peptide: 26-mer control peptide with R112 to A, E114 to A, T116 to A substitutions and appended tyrosine (KPAGASGPSPAIAIAPSHELMQAGGY) [reference compound]” was run?
A: did not inhibit

Q: What about the “inhibition … by calcineurin in vitro” value ([1]; only at concentrations above 400 μM) of the same molecule?
A: only marginally inhibitory

Q: What about the “inhibition of dephosphorylation of HA-NFAT1(1-460)-GFP” value [3] of the same molecule?
A: little or no inhibition

Q: What about the “inhibition of dephosphorylation of HA-NFAT4(1-407)-GFP” value [4] of the same molecule?
A: little or no inhibition

Q: And the “inhibition of calcineurin binding to GST-NFAT1” value ([5]; peptide 100 μM)?
A: did not inhibit

Q: `O=C1C(Cl)=C(Cl)C(=NS(=O)(=O)c2ccccc2)c2ccccc21` [INCA2] was tested. Which Ki [10] did it give?
A: 100 to 500 nM

Q: What about the “displacement of OG-VIVIT from calcineurin” value [10] of the same molecule?
A: complete

Q: And the IC50 [10]?
A: 3000 nM

Q: What about the “binding to calcineurin in the absence of VIVIT peptide” value [11] of the same molecule?
A: direct molecular interaction

Q: And the “dephosphorylation of NFAT by calcineurin in vitro” value [9]?
A: blocked

Q: And the “release of free phosphate from RII phosphopeptide” value [14]?
A: not affected
